pIC50: −log10 of the molar value. Like-named read-outs stand apart in the source and are kept apart here. Starred links: 1 amine or outer side, 2 acyl side, 3 side chain; linkers in the order of their positions; H or OH if unused. Non-standard residues stand in square brackets, D forms with d. Residues, ends and D or L forms follow the SMILES beside them. *: point of attachment. dPro(4R-(4-pyridylmethyl)) = O=C(O)[C@H]1C[C@@H](Cc2ccncc2)CN1; Trp(βS-Me,4-F) = C[C@@H](c1c[nH]c2cccc(F)c12)[C@H](N)C(=O)O; Bip(4'-COOH) = N[C@@H](Cc1ccc(-c2ccc(C(=O)O)cc2)cc1)C(=O)O; Ala(1-bicyclo(1.1.1)pentyl) = N[C@@H](CC12CC(C1)C2)C(=O)O; dPro(4R-Bzl(4-F)) = O=C(O)[C@H]1C[C@@H](Cc2ccc(F)cc2)CN1; dPro(3S-(4-F-Bn)) = O=C(O)[C@@H]1NCC[C@@H]1Cc1ccc(F)cc1; X4 = O=C([C@H]1[C@@H](Cc2ccncc2)CCN1[*:1])[*:2]; Ala(pyrimidin-5-yl) = N[C@@H](Cc1cncnc1)C(=O)O; Phe(4-COOH) = N[C@@H](Cc1ccc(C(=O)O)cc1)C(=O)O; X36 = O=C(O)c1ccc(C[C@H](N[*:1])C(=O)[*:2])cn1; Pro(cis-4-F) = O=C(O)[C@@H]1C[C@H](F)CN1; X6 = O=C([C@H](Cc1ccncn1)N[*:1])[*:2]; AEF = NCCOc1ccc(C[C@H](N)C(=O)O)cc1; hTyr = N[C@@H](CCc1ccc(O)cc1)C(=O)O; d(αMeD) = C[C@@](N)(CC(=O)O)C(=O)O; 3Pal = N[C@@H](Cc1cccnc1)C(=O)O; 4Pal = N[C@@H](Cc1ccncc1)C(=O)O; Dab = NCC[C@H](N)C(=O)O; Dap = NC[C@H](N)C(=O)O; Aib = CC(C)(N)C(=O)O; Piv = CC(C)(C)C(=O)*
Molecular target: T1, IL-1β (Homo sapiens, UniProt P01584)
T1 construct: purchased BioLegend 579404
Test: IL-6 assay in MRC5 cells: inhibition of IL-1β induced IL-6 secretion (AlphaLISA)
Assay type: cell-based
Details: inhibition of IL-1β induced IL-6 secretion in MRC5 cells, read-out: MRC5 IC50
Summary of the method: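 Compound was pre-incubated 1 h at ambient temperature with recombinant human IL-1β at 2λ EC80 before adding human lung fibroblast MRC5 cells (3000/well) in EMEM with 0.025% BSA. After overnight culture at 37 °C, 5% CO2, secreted IL-6 in conditioned medium was measured by AlphaLISA; IC50 from 4-parameter logistic fits.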

[1] = compound pre-incubated 1 hour with recombinant human IL-1β

T1 sequence (P01584 117-269): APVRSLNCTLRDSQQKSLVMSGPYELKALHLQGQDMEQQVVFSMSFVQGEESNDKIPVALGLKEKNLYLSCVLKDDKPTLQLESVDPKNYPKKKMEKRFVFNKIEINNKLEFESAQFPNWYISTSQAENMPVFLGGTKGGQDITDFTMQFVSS

Row | SMILES | pIC50 | pIC50 [1]
1 | C[C@@H](c1c[nH]c2cccc(F)c12)[C@@H]1NC(=O)[C@@H]2C[C@H](F)CN2C(=O)CNC(=O)[C@H](Cc2ccc(C(=O)O)cc2)NC(=O)[C@H](Cc2ccncc2)NC(=O)[C@H](Cc2ccc(-c3ccc(C(=O)O)cc3)cc2)NC(=O)[C@H]2[C@@H](Cc3ccncc3)CCN2C(=O)CNC(=O)[C@H](CCN)NC(=O)[C@H](CCC(N)=O)NC(=O)[C@H](CCc2ccc(O)cc2)NC(=O)C(C)(C)NC(=O)[C@H](Cc2c[nH]c3ccccc23)NC(=O)[C@H](CO)NC(=O)C(C)(C)NC1=O [Example 220] (cyclo([Bip(4'-COOH)][4Pal][Phe(4-COOH)]G[Pro(cis-4-F)][Trp(βS-Me,4-F)][Aib]SW[Aib][hTyr]Q[Dab]G[X4])) | 10.41 | –
2 | C[C@@H](c1c[nH]c2cccc(F)c12)[C@@H]1NC(=O)[C@@H]2C[C@H](F)CN2C(=O)CNC(=O)[C@H](Cc2ccc(C(=O)O)cc2)NC(=O)[C@H](Cc2ccncc2)NC(=O)[C@H](Cc2ccc(OCCNC(=O)C(C)(C)C)cc2)NC(=O)[C@H]2C[C@@H](Cc3ccncc3)CN2C(=O)CNC(=O)[C@H](CCN)NC(=O)[C@H](CCC(N)=O)NC(=O)[C@H](Cc2cncnc2)NC(=O)C(C)(C)NC(=O)[C@H](Cc2c[nH]c3ccccc23)NC(=O)[C@H](CO)NC(=O)C(C)(C)NC1=O [Example 300] (cyclo([AEF](Piv)[4Pal][Phe(4-COOH)]G[Pro(cis-4-F)][Trp(βS-Me,4-F)][Aib]SW[Aib][Ala(pyrimidin-5-yl)]Q[Dab]G[dPro(4R-(4-pyridylmethyl))])) | – | 10.89
3 | C[C@@H](c1c[nH]c2cccc(F)c12)[C@@H]1NC(=O)[C@@H]2C[C@H](F)CN2C(=O)CNC(=O)[C@H](Cc2ccc(C(=O)O)cc2)NC(=O)[C@H](Cc2ccncc2)NC(=O)[C@H](Cc2ccc(-c3ccc(C(=O)O)cc3)cc2)NC(=O)[C@H]2C[C@@H](Cc3ccc(F)cc3)CN2C(=O)CNC(=O)[C@H](CN)NC(=O)[C@H](CCC(N)=O)NC(=O)[C@H](Cc2cncnc2)NC(=O)C(C)(C)NC(=O)[C@H](Cc2c[nH]c3ccccc23)NC(=O)[C@H](CCC(=O)O)NC(=O)C(C)(C)NC1=O [Example 7] (cyclo([Bip(4'-COOH)][4Pal][Phe(4-COOH)]G[Pro(cis-4-F)][Trp(βS-Me,4-F)][Aib]EW[Aib][Ala(pyrimidin-5-yl)]Q[Dap]G[dPro(4R-Bzl(4-F))])) | 10.59 | –
4 | C[C@@H](c1c[nH]c2cccc(F)c12)[C@@H]1NC(=O)[C@@H]2C[C@H](F)CN2C(=O)CNC(=O)[C@H](Cc2ccc(C(=O)O)nc2)NC(=O)[C@H](CC23CC(C2)C3)NC(=O)[C@H](Cc2ccc(-c3ccc(C(=O)O)cc3)cc2)NC(=O)[C@H]2C[C@@H](Cc3ccc(F)cc3)CN2C(=O)CNC(=O)[C@H](CCN)NC(=O)[C@H](CCC(N)=O)NC(=O)[C@H](Cc2cncnc2)NC(=O)C(C)(C)NC(=O)[C@H](Cc2c[nH]c3ccccc23)NC(=O)[C@H](CCC(=O)O)NC(=O)C(C)(C)NC1=O [Example 98] (cyclo([Bip(4'-COOH)][Ala(1-bicyclo(1.1.1)pentyl)][X36]G[Pro(cis-4-F)][Trp(βS-Me,4-F)][Aib]EW[Aib][Ala(pyrimidin-5-yl)]Q[Dab]G[dPro(4R-Bzl(4-F))])) | 10.24 | –
5 | C[C@@H](c1c[nH]c2cccc(F)c12)[C@@H]1NC(=O)[C@@H]2C[C@H](F)CN2C(=O)CNC(=O)[C@H](Cc2ccc(C(=O)O)cc2)NC(=O)[C@H](Cc2ccncc2)NC(=O)[C@H](Cc2ccc(O)cc2)NC(=O)[C@H]2[C@@H](Cc3ccc(F)cc3)CCN2C(=O)CNC(=O)[C@H](CCN)NC(=O)[C@H](CCC(N)=O)NC(=O)[C@H](Cc2cncnc2)NC(=O)[C@@](C)(CC(=O)O)NC(=O)[C@H](Cc2c[nH]c3ccccc23)NC(=O)[C@H](CO)NC(=O)C(C)(C)NC1=O [Example 278] (cyclo(Y[4Pal][Phe(4-COOH)]G[Pro(cis-4-F)][Trp(βS-Me,4-F)][Aib]SW[d(αMeD)][Ala(pyrimidin-5-yl)]Q[Dab]G[dPro(3S-(4-F-Bn))])) | – | 10.68
6 | C[C@@H](c1c[nH]c2cccc(F)c12)[C@@H]1NC(=O)[C@@H]2C[C@H](F)CN2C(=O)CNC(=O)[C@H](Cc2ccc(C(=O)O)cc2)NC(=O)[C@H](Cc2ccncc2)NC(=O)[C@H](Cc2ccc(-c3ccc(C(=O)O)cc3)cc2)NC(=O)[C@H]2C[C@@H](Cc3ccc(F)cc3)CN2C(=O)CNC(=O)[C@H](CO)NC(=O)[C@H](CCC(N)=O)NC(=O)[C@H](Cc2cccnc2)NC(=O)C(C)(C)NC(=O)[C@H](Cc2c[nH]c3ccccc23)NC(=O)[C@H](CCC(=O)O)NC(=O)C(C)(C)NC1=O [Example 34] (cyclo([Bip(4'-COOH)][4Pal][Phe(4-COOH)]G[Pro(cis-4-F)][Trp(βS-Me,4-F)][Aib]EW[Aib][3Pal]QSG[dPro(4R-Bzl(4-F))])) | 10.49 | –
7 | C[C@@H](c1c[nH]c2cccc(F)c12)[C@@H]1NC(=O)[C@@H]2C[C@H](F)CN2C(=O)CNC(=O)[C@H](Cc2ccc(C(=O)O)cc2)NC(=O)[C@H](Cc2ccncc2)NC(=O)[C@H](Cc2ccc(-c3ccc(C(=O)O)cc3)cc2)NC(=O)[C@H]2[C@@H](Cc3ccc(F)cc3)CCN2C(=O)CNC(=O)[C@H](CCN)NC(=O)[C@H](CCC(N)=O)NC(=O)[C@H](Cc2ccncn2)NC(=O)C(C)(C)NC(=O)[C@H](Cc2c[nH]c3ccccc23)NC(=O)[C@H](CCC(=O)O)NC(=O)C(C)(C)NC1=O [Example 312] (cyclo([Bip(4'-COOH)][4Pal][Phe(4-COOH)]G[Pro(cis-4-F)][Trp(βS-Me,4-F)][Aib]EW[Aib][X6]Q[Dab]G[dPro(3S-(4-F-Bn))])) | 10.77 | –

Reference: patent US20260242419A1, “A CYCLIC PEPTIDE FOR TRAPPING INTERLEUKIN-1 BETA” (Merck Sharp & Dohme LLC, priority 2023, published 2026)
